Experimental data taken from patent US20040138272A1, “1,4-Substituted cyclohexane derivatives” (priority 2002, published 2004).

Columns and labels:
ROCK II = biological target: T1, ROCK II (Rattus norvegicus, UniProt Q62868); assay: ROCK II kinase assay with [γ-32P] ATP and myelin basic protein substrate (FIG. 3); type: biochemical; settings: 100 μM ATP, 30 min at 30° C.
T1 construct: purchased Upstate (Lake Placid, N.Y.)
From the text: The ability of compounds to inhibit ROK activity may be tested in a cell-free assay system using recombinant ROK, radiaoactive ATP, and Myelin basic Protein (MBP). MBP is a highly phosphorylated protein, is inexpensive to buy in purified form, is phosphorylated by ROK, and is used as the assay substrate for phosphorylation. Recombinant ROK has been prepared from a number of sources. Overexpression in mammalian cells provides a convenient, easily renewed source of ROK activity. Measurement of Rho-associated kinase (ROK) activity is important to determine the potency of novel inhibitors. MBP is a substrate for ROK and a number of other protein kinases, making it useful both to quantitate ROK activity and to indicate the potency and specificity of novel inhibitors for ROK. […]
ROCK II was assayed in 20 mM MOPS, pH 7.2, 25 mM β-glycerophosphate, 5 mM EGTA, 1 mM sodium orthovanadate, 1 mM dithiothreitol with dephosphorylated myelin basic protein (MBP, 0.2 mg/ml) as substrate with or without BA-1016 or BA-1017. […] Assays were initiated by adding Mg^2+/ATP and terminated by spotting 40 μl of each reaction onto phosphocellulose paper (P81 paper, Whatman), followed by washes in 0.75% phosphoric acid to remove ATP and then dried, put in scintillation cocktail and counted to measure ^32P incorporation. Radioactivity is measured using a scintillation counter. […]

[1] = biological target: T2, human Rho kinase II (ROCK-II (h)) (Homo sapiens, UniProt O75116); assay: Commercial inhibition assay with recombinant human ROCKII, IC50 curves (FIGS. 8, 9); type: biochemical
T2 construct: purchased
T2 sequence (O75116 whole entry): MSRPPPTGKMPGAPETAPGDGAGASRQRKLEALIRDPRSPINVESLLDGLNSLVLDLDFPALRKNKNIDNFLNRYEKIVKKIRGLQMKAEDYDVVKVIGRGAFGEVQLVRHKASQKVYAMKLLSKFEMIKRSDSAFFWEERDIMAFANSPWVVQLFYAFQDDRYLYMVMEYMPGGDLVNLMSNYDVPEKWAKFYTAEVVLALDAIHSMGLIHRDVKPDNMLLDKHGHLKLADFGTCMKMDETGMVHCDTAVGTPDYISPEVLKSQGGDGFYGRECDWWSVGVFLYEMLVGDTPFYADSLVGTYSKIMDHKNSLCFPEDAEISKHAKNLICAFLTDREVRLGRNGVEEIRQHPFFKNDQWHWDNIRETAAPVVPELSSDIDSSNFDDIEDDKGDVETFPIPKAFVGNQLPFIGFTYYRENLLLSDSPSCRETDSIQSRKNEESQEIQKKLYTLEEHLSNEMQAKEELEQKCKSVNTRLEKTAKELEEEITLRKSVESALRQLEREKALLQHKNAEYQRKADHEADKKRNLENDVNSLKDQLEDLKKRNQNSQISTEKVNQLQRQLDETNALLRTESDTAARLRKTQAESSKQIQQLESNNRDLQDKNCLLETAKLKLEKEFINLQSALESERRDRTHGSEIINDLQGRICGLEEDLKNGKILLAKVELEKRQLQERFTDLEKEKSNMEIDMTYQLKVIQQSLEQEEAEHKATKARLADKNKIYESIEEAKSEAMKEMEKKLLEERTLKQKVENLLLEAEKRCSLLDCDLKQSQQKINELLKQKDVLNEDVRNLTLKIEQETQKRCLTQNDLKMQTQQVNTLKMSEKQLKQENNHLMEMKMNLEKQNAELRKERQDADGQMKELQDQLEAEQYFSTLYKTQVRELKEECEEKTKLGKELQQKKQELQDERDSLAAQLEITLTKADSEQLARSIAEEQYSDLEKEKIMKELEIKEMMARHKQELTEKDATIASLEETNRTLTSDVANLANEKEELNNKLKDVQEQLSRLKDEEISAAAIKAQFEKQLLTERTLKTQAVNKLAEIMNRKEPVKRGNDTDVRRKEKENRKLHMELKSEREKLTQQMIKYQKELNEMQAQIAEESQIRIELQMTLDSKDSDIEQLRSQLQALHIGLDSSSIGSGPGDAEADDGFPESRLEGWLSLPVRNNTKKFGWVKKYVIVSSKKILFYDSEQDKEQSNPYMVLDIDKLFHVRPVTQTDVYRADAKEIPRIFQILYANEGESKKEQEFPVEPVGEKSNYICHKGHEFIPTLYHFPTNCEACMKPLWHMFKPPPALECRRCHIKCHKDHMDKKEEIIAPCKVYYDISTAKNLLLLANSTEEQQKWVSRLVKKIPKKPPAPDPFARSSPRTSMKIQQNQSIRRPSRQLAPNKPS
From the text: Referring to FIGS. 8 and 9 inhibiton of ROCKII activity and determination of IC50 may also be done throught the use of known (i.e. commercial) inhibition assays that use recombinant human ROCKII.

T1 sequence (Q62868 11-550 limits assumed): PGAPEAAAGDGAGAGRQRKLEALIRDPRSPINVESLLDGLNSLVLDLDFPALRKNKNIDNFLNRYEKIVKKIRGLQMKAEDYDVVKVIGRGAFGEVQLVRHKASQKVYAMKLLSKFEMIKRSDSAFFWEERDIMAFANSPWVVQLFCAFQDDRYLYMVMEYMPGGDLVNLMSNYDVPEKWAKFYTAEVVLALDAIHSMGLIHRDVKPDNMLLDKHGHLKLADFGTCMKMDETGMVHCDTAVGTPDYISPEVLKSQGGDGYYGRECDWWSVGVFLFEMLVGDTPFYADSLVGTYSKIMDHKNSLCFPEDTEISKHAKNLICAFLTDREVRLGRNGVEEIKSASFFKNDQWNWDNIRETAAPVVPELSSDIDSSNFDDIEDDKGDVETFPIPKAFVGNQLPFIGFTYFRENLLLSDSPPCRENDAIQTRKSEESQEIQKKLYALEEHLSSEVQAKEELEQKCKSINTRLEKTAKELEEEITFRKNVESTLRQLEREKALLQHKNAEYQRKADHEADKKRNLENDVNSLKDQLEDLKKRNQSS

“(R)-trans-4-(But-3′-en-1′-amino)-N-(4″-pyridyl)cyclohexane Carboxamide Dihydrochloride [BA-1016]” was tested, and the “inhibition of ROCKII activity (FIG. 3)” value (ROCK II) was “inhibition of ROCKII activity” and the IC50 [1] was 1900 nM.
